Measured values taken from US20200071316A1, “ACTIVATORS OF THE RETINOIC ACID INDUCIBLE GENE "RIG-I" PATHWAY AND METHODS OF USE THEREOF” (Kineta Immuno-Oncology LLC, priority 2018, published 2020).
Marks after values point to notes of the source that are not given here.

Columns and labels:
[1] = tested on: THP1-Lucia ISG IRF3 −/− cells; assay: IRF3-deficient THP1-Lucia ISG IRF3 −/− reporter assay (counter-screen); type: cell-based; details: Homo sapiens, 18 h after stimulation, read-out: THP1 ISG IRF3 −/−: fold increase of luciferase activity over background; for fold induction at 10 µM: 10 μM compound
Protocol: (§1) The promotor was comprised of five IFN-stimulated response elements (ISRE) fused to an ISG54 minimal promotor which is unresponsive to NF-kB or AP-1 pathways. […] The IRF3-deficient THP1-Lucia™ ISG IRF3 −/− reporter cell line was generated by CRISPR technology from the parent THP1-Lucia™ ISG reporter cell line.
(§2) 5 THP1-Lucia™ ISG cells and IRF3-deficient THP1-Lucia™ ISG IRF3 −/− cells were differentiated with PMA (100 ng/ml) and stimulated with compounds at the indicated concentrations (5 to 20 μM), positive control, or not treated (background). Luciferase secretion was quantified using the QUANTI-Luc luciferase assay system (InvivoGen) 18 h after stimulation. Data are shown as fold increase luciferase activity over background in Table 7 and represent the IRF3-dependent ISG54 promotor activity by the THP1-Lucia™ ISG cells in response to compounds. […] The fold increase of compounds (10 μM, *20 μM, **5 μM) induced IRF3 dependent luciferase activity is indicated as follows: “−” indicates less than 2.4 fold increase; “+” indicates a 2.4-4.9 fold increase; “++” indicates a 5-9.9 fold increase; “+++” indicates a 10-19 fold increase; “++++” indicates a 20-39 fold increase; “+++++” indicates greater than or equal to 40 fold increase.

[2] = tested on: IRF3 signaling pathway (IRF-inducible ISG54 promotor) in THP1-Lucia ISG cells; assay: THP1-Lucia ISG reporter assay: induction of IRF3-dependent luciferase activity; type: cell-based; details: Homo sapiens, PMA-differentiated cells, 18 h after stimulation, read-out: THP1 ISG: fold increase of IRF3-dependent luciferase activity over background; for fold induction at 10 µM: 10 μM compound
Protocol: The compounds were evaluated in the THP1-Lucia™ ISG (interferon stimulated genes) reporter assay to determine if the compounds activate the IRF3 signaling pathway. The THP1-Lucia™ cells (InvivoGen) express the secreted luciferase (Lucia) reporter gene under the control of an IRF-inducible promotor. The reporter cell line was developed from human monocytic leukemia THP-1 cells.
as §1, §2

[3] = tested on: CXCL10 secretion by CT26 cells; assay: RIG-I dependent CXCL10 secretion by CT26 colon carcinoma cells (ELISA); type: cell-based, murine; details: 24 h
Protocol: (§3) The CT26 murine colon carcinoma cell line (ATCC) was used to evaluate the induction of CXCL10 secretion. CXCL10 is an important chemokine in tumor immune biology that recruits tumor-specific T cells to the tumor. To confirm that compound-mediated CXCL10 production was RIG-I specific, RIG-I deficient CT2-RIG-1−/− cells were generated by Kineta using CRISPR technology.
(§4) CT26 cells were seeded at a density of 1×10^4 cells per well on a 96-well tissue culture plate in 100 μL of cell culture and cells were incubated at 37° C. and 5% CO2 for 24 hr. Next, CT26 cells were treated with compounds at the indicated concentrations. CXCL10 was quantified by ELISA from supernatants taken 24 h after compound stimulation by use of the CXCL10 DuoSet ELISA kit (Cat # DY466, R&D, Minneapolis, Minn., USA) according to the manufacturer's instructions.
(§5) CXCL10 secretion by CT26 cells in response to compounds (in an amount of 5 to 20 μM) of the present disclosure is shown in Table 8. The compound-induced CXCL10 production was RIG-I dependent, since none of the compounds mediated CXCL10 secretion in RIG-I deficient CT26 RIG-1−/− cells. The compounds (10 μM, *20 μM, **5 μM) are indicated in the table as follows: “−” indicates less than 100 pg/mL; “+” indicates 100-199 pg/mL; “++” indicates 200-399 pg/mL; “+++” indicates 400-799 pg/mL; “++++” indicates 800 to 1599 pg/mL; “+++++” indicates greater than or equal to 1600 pg/ml.

[4] = tested on: RIG-I deficient CT26 RIG-1−/− cells; assay: CXCL10 secretion in RIG-I deficient CT26 RIG-1−/− cells (ELISA); type: cell-based, murine; details: 24 h
Protocol: as §3, §4, §5

Row | Structure (SMILES) | fold induction at 10 µM [1] | fold induction at 10 µM [2] | CXCL10 secretion by CT26 cells ([3]; 10 μM compound) | CXCL10 secretion by CT26 RIG-I −/− cells ([4]; 10 μM compound) | fold induction at 20 µM ([1]; 20 μM compound (*)) | fold induction at 20 µM ([2]; 20 μM compound (*)) | CXCL10 secretion by CT26 cells ([3]; 20 μM compound (*)) | CXCL10 secretion by CT26 RIG-I −/− cells ([4]; 20 μM compound (*))
1 | O=C(Nc1nc2ccc(OCC(F)(F)F)cc2s1)c1cc2ccccc2cc1OCCCCN1CCOCC1 [Example 58, 3-[4-(morpholin-4-yl)butoxy]-N-[6-(2,2,2-trifluoroethoxy)-1,3-benzothiazol-2-yl]naphthalene-2-carboxamide] | < 2.4 | 5 to 9.9 | ++ (“++” indicates 200-399 pg/mL) | − (“−” indicates less than 100 pg/mL) | – | – | – | –
2 | O=C(Nc1nc2ccc(S(=O)(=O)N3CCCC3)cc2s1)c1cc2ccsc2cc1OCCCCN1CCOCC1 [Example 42, 6-[4-(morpholin-4-yl)butoxy]-N-[6-(pyrrolidine-1-sulfonyl)-1,3-benzothiazol-2-yl]-1-benzothiophene-5-carboxamide] | < 2.4 | 5 to 9.9 | ++++ (“++++” indicates 800 to 1599 pg/mL) | − (“−” indicates less than 100 pg/mL) | – | – | – | –
3 | O=C(Cc1ccc2nc(NC(=O)c3ccc4ccccc4c3)sc2c1)NC1CC1 [Example 12, N-{6-[(cyclopropyl-carbamoyl)methyl]-1,3-benzothiazol-2-yl}naphthalene-2-carboxamide] | – | – | +++ (“+++” indicates 400-799 pg/mL) | − (“−” indicates less than 100 pg/mL) | < 2.4 | 2.4 to 4.9 | – | –
4 | O=C(Nc1ccccn1)c1ccc2nc(NC(=O)c3ccc4ccccc4c3)sc2c1 [Example 14, 2-(naphthalene-2-amido)-N-(pyridin-2-yl)-1,3-benzo-thiazole-6-carboxamide] | < 2.4 | 20 to 39 | ++++ (“++++” indicates 800 to 1599 pg/mL) | − (“−” indicates less than 100 pg/mL) | – | – | – | –
5 | Cn1c(C(=O)Nc2nc3ccc(S(=O)(=O)N4CCCC4)cc3s2)cc2ccccc21 [Example 52, 1-methyl-N-[6-(pyrrolidine-1-sulfonyl)-1,3-benzothiazol-2-yl]-1H-indole-2-carboxamide] | < 2.4 | 10 to 19 | – | – | – | – | +* (“+” indicates 100-199 pg/mL) | −* (“−” indicates less than 100 pg/mL)
6 | O=C(Nc1nc2ccc(S(=O)(=O)N3CCOCC3)cc2s1)c1cc2ccccc2cc1OCCCCN1CCOCC1 [Example 17, 3-[4-(morpholin-4-yl)butoxy]-N-[6-(morpholine-4-sulfonyl)-1,3-benzothiazol-2-yl]naphthalene-2-carboxamide] | < 2.4 | 10 to 19 | +++ (“+++” indicates 400-799 pg/mL) | − (“−” indicates less than 100 pg/mL) | – | – | – | –
7 | O=C(Nc1nc2ccc(S(=O)(=O)N3CC4(COC4)C3)cc2s1)c1cc2ccccc2cc1OCCN1CCOCC1 [Example 65, 3-[2-(morpholin-4-yl)ethoxy]-N-(6-{2-oxa-6-azaspiro[3.3]heptane-6-sulfonyl}-1,3-benzothiazol-2-yl)naphthalene-2-carboxamide] | < 2.4 | 2.4 to 4.9 | + (“+” indicates 100-199 pg/mL) | − (“−” indicates less than 100 pg/mL) | – | – | – | –
8 | O=C(Nc1nc2ccc(OCC(F)(F)F)cc2s1)c1cc2ccccc2cc1OCCN1CCOCC1 [Example 54, 3-[2-(morpholin-4-yl)ethoxy]-N-[6-(2,2,2-trifluoroethoxy)-1,3-benzothiazol-2-yl]naphthalene-2-carboxamide] | < 2.4 | 2.4 to 4.9 | − (“−” indicates less than 100 pg/mL) | − (“−” indicates less than 100 pg/mL) | – | – | – | –
